According to patent US7105488B1, “G protein-coupled receptor antagonists” (priority 1998, dated 2006):
Where a SMILES comes first, the peptide text is derived from it.

Columns and labels:
Format in all cases: cell-based
CXCR4 receptor = CXCR4 receptor (Homo sapiens, UniProt P61073); assay: Inhibition of SDF-1α-induced intracellular calcium release (Fura-2/AM) in HeLa and U87 cells; conditions: for Concentration, required for inhibition of signal transduction: SDF-1α-induced intracellular calcium release, Table 2
CXCR4 receptor, sequence (P61073 whole entry): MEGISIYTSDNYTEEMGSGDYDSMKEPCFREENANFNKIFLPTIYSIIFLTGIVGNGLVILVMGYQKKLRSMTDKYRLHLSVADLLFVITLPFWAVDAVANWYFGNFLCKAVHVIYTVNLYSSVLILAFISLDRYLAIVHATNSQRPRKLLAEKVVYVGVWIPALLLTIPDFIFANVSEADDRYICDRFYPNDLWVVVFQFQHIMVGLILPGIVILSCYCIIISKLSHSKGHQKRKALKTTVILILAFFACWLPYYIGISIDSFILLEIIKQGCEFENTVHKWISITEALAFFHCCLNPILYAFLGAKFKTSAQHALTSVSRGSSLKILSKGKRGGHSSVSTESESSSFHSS
Procedure: The effect of the peptides on CXCR4-mediated calcium fluxes in HeLa cells that naturally express the CXCR4 receptor and U87 cells stably expressing the CXCR4 receptor was tested as follows. Cells grown on Nunc cover glass chamber slides were incubated with 1 micromolar Fura-2/AM for 20 min in a CO2-incubator, rinsed with PBS and mounted on the stage of a Zeiss Axiovert inverted microscope. [Ca^2+]i measurements were performed using an Attofluor digital imaging system (Atto Instruments, Rockville, Md.). Fluorescence of Fura was excited at alternating wavelength of 340 and 380 nm. […] Calibrations of [Ca^2+]i signals were performed using Ca^2+ standards containing 1 micromolar Fura. CXCR4 antagonists were tested on HeLa cells and U87 cells. Stromal cell-derived factor-1α (SDF-1α) was used as a specific CXCR4 agonist. CCR5 antagonists, which were used in selectivity studies as described below, were tested on HEK (human kidney […]) cells stably expressing the CCR5 receptor and RANTES was used as an agonist. The antagonist activity of the peptides was evaluated by measuring the inhibition of agonist-evoked intracellular Ca^2+i release. These measurements were carried out in Fura-2/AM-treated cells, utilizing an Attofluor digital imaging system as described above. The agonist was SDF-1 α.

HIV-1RF = assay: Anti-HIV-1 cytoprotection assay, CEM-SS cells infected with HIV-1RF; conditions: HIV-1 strain RF, FIG. 2
LAV strain of HIV-1 = assay: Anti-HIV-1 assay, CEM-SS cells infected with LAV strain, p24 ELISA; conditions: FIG. 1
Procedure: The ability of synthetic CXCR4-derived peptides of Table 1 to inhibit HIV-1 infection of CEM-SS cells was tested using an LAV strain of the virus that is known to utilize CXCR4 as a co-receptor. Anti-HIV-1 assay. Buckheit et al. (1993) Antiviral Research 21: 247. The CEM-SS cells were maintained in RPMI 1640 medium containing 10% fetal bovine serum. The cells were placed in each well of a 96-well microtiter plate to a density of 5×10^3 cells per well. The cells were infected with HIV-1 virus at a multiplicity of infection (MOI) previously determined to produce maximal level of viral production at 6 days post infection (MOI of 0.01).
Serial half-log dilutions of test compound were added to appropriate wells in triplicate to evaluate their ability to inhibit HIV-1 infection. AZT was used in parallel as a positive control. Following 6 days of incubation at 37° C., the presence and relative abundance of viral p24 protein was determined by ELISA in cell-free supernatants derived from each well of the microtiter plate. The p24 ELISA kit was purchased from the AIDS Vaccine Program, NCI, FCRDC (Frederick, Md.) and the assay was performed according to the manufacturer's instructions.

CCKAR = target: T1, CCKAR (Rattus norvegicus, UniProt P30551); assay: Inhibition of CCK-8-induced intracellular calcium release in CHO cells stably transfected with rat CCKAR
T1 construct: expressed in transfected cells; host or cells: CHO cells
T1 sequence (P30551 1-444): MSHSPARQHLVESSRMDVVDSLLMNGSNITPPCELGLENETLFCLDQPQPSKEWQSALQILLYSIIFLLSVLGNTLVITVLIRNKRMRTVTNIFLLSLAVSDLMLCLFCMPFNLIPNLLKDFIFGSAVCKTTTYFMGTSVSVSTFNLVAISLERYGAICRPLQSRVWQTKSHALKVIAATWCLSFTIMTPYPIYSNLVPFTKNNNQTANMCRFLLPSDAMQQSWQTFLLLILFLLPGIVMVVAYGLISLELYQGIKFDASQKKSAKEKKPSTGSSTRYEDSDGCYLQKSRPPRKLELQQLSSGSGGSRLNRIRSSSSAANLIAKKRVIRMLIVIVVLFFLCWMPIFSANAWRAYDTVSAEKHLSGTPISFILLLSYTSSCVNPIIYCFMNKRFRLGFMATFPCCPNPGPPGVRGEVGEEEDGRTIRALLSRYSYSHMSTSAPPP
Procedure: The activity of peptides from the CCKAR transmembrane domain were tested in transfected CHO cells that stably express rat CCKAR (Tarasova et al. (1997), J. Biol. Chem. 272: 14817–14824). Sulfated cholecystokinin octapeptide was the CCKAR agonist. Determination of intracellular calcium release was performed as described in example 1 above.
None of CCKAR-derived peptides served as antagonists of chemokine receptors and none could inhibit HIV-1 infection. The activity of the antagonists in inhibiting signaling through the receptor was compared to the ability to prevent agonist binding (Table 4). Inhibition of signaling was assessed in CCK-8 evoked intracellular calcium release in FURA-2/AM treated CHO cells stably transfected with rat CCKAR (Tarasova, et al. (1997) J. Biol. Chem. 272:14817). Inhibition of ligand binding was measured with the use of a fluorescent agonist, rhodamine green CCK-8 (RG-CCK-8) and quantitative confocal laser scanning microscopy (Tarasova, et al. (1997) J. Biol. Chem. 272:14817). Peptides derived from the first, second, and sixth transmembrane domains inhibited CCK-induced signaling through the CCKAR receptor.

CCR5 receptor = target: T2, CCR5 receptor (Homo sapiens, UniProt P51681); assay: Inhibition of agonist (RANTES)-evoked intracellular calcium release through CCR5; conditions: U87 cells as printed
T2 construct: expressed in transfected cells
T2 sequence (P51681 whole entry): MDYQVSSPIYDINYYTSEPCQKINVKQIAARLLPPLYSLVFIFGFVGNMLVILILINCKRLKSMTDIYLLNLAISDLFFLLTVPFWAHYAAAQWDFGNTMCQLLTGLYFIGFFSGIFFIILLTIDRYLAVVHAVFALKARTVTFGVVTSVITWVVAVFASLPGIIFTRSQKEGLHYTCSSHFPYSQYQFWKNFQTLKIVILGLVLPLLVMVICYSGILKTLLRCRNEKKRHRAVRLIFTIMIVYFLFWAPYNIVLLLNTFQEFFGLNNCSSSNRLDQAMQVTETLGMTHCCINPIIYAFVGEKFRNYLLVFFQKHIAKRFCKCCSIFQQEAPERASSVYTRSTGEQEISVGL
Procedure: CCR5 antagonists, which were used in selectivity studies as described below, were tested on HEK (human kidney […]) cells stably expressing the CCR5 receptor and RANTES was used as an agonist. The antagonist activity of the peptides was evaluated by measuring the inhibition of agonist-evoked intracellular Ca^2+i release. These measurements were carried out in Fura-2/AM-treated cells, utilizing an Attofluor digital imaging system as described above. The agonist was SDF-1 α.

With `CC[C@H](C)[C@H](NC(=O)[C@H](Cc1ccccc1)NC(=O)[C@H](CC(=O)O)NC(=O)[C@@H]1CCCN1C(=O)[C@@H](NC(=O)[C@@H](NC(=O)[C@H](CC(C)C)NC(=O)[C@H](CC(C)C)NC(=O)[C@H](CC(C)C)NC(=O)[C@H](C)NC(=O)[C@@H]1CCCN1C(=O)[C@@H](NC(=O)[C@H](Cc1c[nH]c2ccccc12)NC(=O)[C@@H](NC(=O)CNC(=O)[C@@H](NC(=O)[C@H](Cc1ccc(O)cc1)NC(=O)[C@@H](N)C(C)C)C(C)C)C(C)C)[C@@H](C)CC)[C@@H](C)O)[C@@H](C)CC)C(=O)N[C@@H](Cc1ccccc1)C(=O)N[C@@H](C)C(=O)N[C@@H](CC(N)=O)C(=O)N[C@@H](CC(=O)O)C(=O)N[C@@H](CC(=O)O)C(=O)O` [Peptide F-4-2] (H-VYVGVWIPALLLTIPDFIFANDD-OH; N-terminus and C-terminus assumed) the “Concentration, required for inhibition of signal transduction” value (CXCR4 receptor) was 5 µM and the “Concentration that completely inhibited infection” value (HIV-1RF) was 1 µM.

For `CC[C@H](C)[C@H](NC(=O)[C@@H](NC(=O)[C@H](Cc1ccccc1)NC(=O)[C@H](CC(C)C)NC(=O)[C@@H](N)CC(C)C)C(C)C)C(=O)N[C@H](C(=O)N[C@@H](CC(C)C)C(=O)N1CCC[C@H]1C(=O)N[C@@H](Cc1ccccc1)C(=O)N[C@@H](Cc1c[nH]c2ccccc12)C(=O)N[C@@H](C)C(=O)N[C@H](C(=O)N[C@@H](CC(=O)O)C(=O)N[C@@H](C)C(=O)N[C@H](C(=O)N[C@@H](C)C(=O)N[C@@H](CC(N)=O)C(=O)N[C@@H](Cc1c[nH]c2ccccc12)C(=O)N[C@@H](Cc1ccc(O)cc1)C(=O)N[C@@H](Cc1ccccc1)C(=O)NCC(=O)N[C@@H](CC(N)=O)C(=O)N[C@@H](CC(=O)O)C(=O)N[C@@H](CC(=O)O)C(=O)O)C(C)C)C(C)C)[C@@H](C)O` [Peptide F-2-2] (H-LLFVITLPFWAVDAVANWYFGNDD-OH; N-terminus and C-terminus assumed), the “Concentration at which signal transduction was completely blocked” value (CXCR4 receptor) was 0.2 µM, the “Concentration, required for inhibition of signal transduction” value (CXCR4 receptor) was 0.2 µM and the “Concentration, required for complete inhibition of [Ca^2+I] release” value (CXCR4 receptor; TM2-derived peptides, Table 3) was 0.2 µM. For the same compound, the “Concentration that completely inhibited infection” value (LAV strain of HIV-1) was 5 µM.

`CSCC[C@H](NC(=O)[C@H](CC(C)C)NC(=O)[C@H](CC(=O)O)NC(=O)[C@H](CO)NC(=O)[C@@H](NC(=O)[C@H](C)NC(=O)[C@H](CC(C)C)NC(=O)[C@H](CO)NC(=O)[C@H](CC(C)C)NC(=O)[C@H](CC(C)C)NC(=O)[C@@H](N)Cc1ccccc1)C(C)C)C(=O)N[C@@H](CC(C)C)C(=O)N[C@@H](CS)C(=O)N[C@@H](CC(C)C)C(=O)N[C@@H](Cc1ccccc1)C(=O)N[C@@H](CS)C(=O)N[C@@H](CCSC)C(=O)N1CCC[C@H]1C(=O)N[C@@H](Cc1ccccc1)C(=O)N[C@@H](CC(N)=O)C(=O)N[C@@H](CC(C)C)C(=O)N1CCC[C@H]1C(=O)O` [CCKAR-TM-2-1] (H-FLLSLAVSDLMLCLFCMPFNLP-OH) was tested, and the “Concentration, required for inhibition of signaling” value (CCKAR; CCK-8-induced intracellular calcium release) was 2 µM and the “Potency in inhibition of ligand signaling compared with binding” value (CCKAR; signaling versus RG-CCK-8 binding) was “comparable potencies”.

In the case of “LFFL LTVPFWAHYAAAQWDFGDD (LFFLLTVPFWAHYAAAQWDFGDD; CCR5-TM-2-2 GPCR CCR5)”, the “Antagonist activity on CXCR4 signaling, in words” value (CXCR4 receptor) is reported as “no effect” and the “Concentration at which agonist induced signaling of the receptor was completely abolished” value (CCR5 receptor) is reported as 500 nM.
